Data as given in patent publication US20230312587A1, “PTERIDINONE COMPOUNDS AND USES THEREOF” (Vertex Pharmaceutical Incorporated, priority 2018, published 2023).
Like-named read-outs stand apart in the source and are kept apart here.

How the values were obtained:
Type in all cases: cell-based
[1] = tested on: β-catenin-TCF-mediated reporter transcription activity in Colo 205 cells; assay: Colo 205 reporter assay (TCF/LEF luciferase); conditions: Colo 205 TCF/LEF luciferase reporter, five hours after addition of compound, read-out: TCF reporter Colo205 IC50
Method in brief: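 Luciferase signal from a TCF/LEF-driven reporter, stably integrated in Colo 205 colon cancer cells, was measured 5 h after compound addition.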

Colo-205 cells = assay: Calcium flux assay (FLIPR Calcium 5); conditions: FLIPR Calcium 5, measured over 36 minutes
Procedure: Compounds described herein induced ER stress by causing intracellular calcium flux. Calcium flux was measured in Colo-205 cells using the FLTPR® Calcium 5 Assay Kit according to manufacter's protocol (Molecular Devices, Cat. #R8186) on a FLIPR3 system (Molecular Devices). Calcium flux is measured over 36 minutes. The Colo-205 calcium flux assay data are summarized in Table 47: A<0.6 μM; 0.6 μM≤B<2.0 μM; 2.0 μM≤C<10.0 μM; D≥10.0 μM.

Hek293 empty vector = assay: In vitro cell viability (CellTiter-Glo), Hek293 empty vector; conditions: read-out: Hek293 empty vector viability
Method in brief: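 HEK293 cells stably transduced with empty pCLPCX retroviral vector (puromycin-selected), seeded 1,000 cells/well, treated next day with compounds at various concentrations. Viability read by CellTiter-Glo luminescence 96 hrs after compound addition; IC50 derived.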

Compound | IC50 ([1]; Homo sapiens, COLO 205, 5 h) [nM] | EC50 (Colo-205 cells; Homo sapiens, COLO 205, 0.6 h) [nM] | IC50 (Hek293 empty vector; Homo sapiens, HEK293) [nM] | IC50 [1] [nM] | EC50 (Colo-205 cells) [nM] | IC50 (Hek293 empty vector; Hek293 empty vector) [nM]
Cc1nc(NCc2cnn(Cc3ccc(F)cc3)c2)nc2c1NC(=O)C1(CC1)N2 [Compound 222, 2′-(((1-(4-fluorobenzyl)-1H-pyrazol-4-yl)methyl)amino)-4′-methyl-5′,8′-dihydro-6′H-spiro[cyclopropane-1,7′-pteridin]-6′-one] | ≥ 5000 | 2000 to 10000 | ≥ 3000 | – | – | –
Cc1nc(NCc2cnn(Cc3cccc(C(C)C)c3)c2)nc2c1NC(=O)[C@H](C)N2C [Compound 80, (7S)-2-(((1-(3-isopropylbenzyl)-1H-pyrazol-4-yl)methyl)amino)-4,7,8-trimethyl-7,8-dihydropteridin-6(5H)-one] | < 300 | 600 to 2000 | ≥ 3000 | – | – | –
Cc1nc(NCc2cnn(Cc3cc(F)c(F)c(F)c3)c2)nc2c1NC(=O)[C@H](C)N2C [Compound 122, (7S)-4,7,8-trimethyl-2-(((1-(3,4,5-trifluorobenzyl)-1H-pyrazol-4-yl)methyl)amino)-7,8-dihydropteridin-6(5H)-one] | < 300 | < 600 | ≥ 3000 | – | – | –
Cc1nc(N[C@H]2CC[C@H](n3ccc(C(F)(F)F)n3)C2)nc2c1NC(=O)[C@H](C)N2C (single isomer, unassigned) [Compound 310] | 1000 to 5000 | 2000 to 10000 | ≥ 3000 | – | – | –
Cc1nc(N[C@H]2C[C@@H](Oc3cc(F)c(F)c(F)c3)C2)nc2c1NC(=O)[C@H](C)N2C [Compound 247, (7S)-4,7,8-trimethyl-2-((cis-3-(3,4,5-trifluorophenoxy)cyclobutyl)amino)-7,8-dihydropteridin-6(5H)-one] | 1000 to 5000 | 2000 to 10000 | ≥ 3000 | – | – | –
Cc1nc(NCc2cnn(Cc3ccc(C(F)(F)F)nc3[C@@H](C)O)c2)nc2c1NC(=O)[C@H](C)N2C (single isomer, unassigned) [Compound 420] | < 300 | 2000 to 10000 | ≥ 3000 | – | – | –
(7S)-2-(((1-((6-fluoro-2-isopropylpyridin-3-yl)methyl)-1H-pyrazol-4-yl)methyl)(methyl)amino)-7-isopropyl-4,8-dimethyl-7,8-dihydropteridin-6(5H)-one [Compound 430] | – | – | – | < 300 | 600 to 2000 | ≥ 3000
Cc1nc(NCc2cnn(Cc3ccc(C(F)(F)F)nc3C(C)(C)O)c2)nc2c1NC(=O)[C@H](C)N2C [Compound 416, (7S)-2-(((1-((2-(2-hydroxypropan-2-yl)-6-(trifluoromethyl)pyridin-3-yl)methyl)-1H-pyrazol-4-yl)methyl)amino)-4,7,8-trimethyl-7,8-dihydropteridin-6(5H)-one] | < 300 | 600 to 2000 | ≥ 3000 | – | – | –
Cc1nc(NCc2cnn(C[C@H](C)c3ccc(F)cc3)c2)nc2c1NC(=O)[C@H](C)N2C [Compound 96, (7S)-2-(((1-((R)-2-(4-fluorophenyl)propyl)-1H-pyrazol-4-yl)methyl)amino)-4,7,8-trimethyl-7,8-dihydropteridin-6(5H)-one] | < 300 | < 600 | ≥ 3000 | – | – | –
Cc1nc(NCc2cnn(Cc3ccc(F)nc3)c2)nc2c1NC(=O)[C@H](C)N2C [Compound 77] | < 300 | 600 to 2000 | ≥ 3000 | – | – | –
Cc1nc(NCc2cnn(Cc3cc(C(F)(F)F)nn3C)c2)nc2c1NC(=O)[C@H](C1CC1)N2C [Compound 396, (7S)-7-Cyclopropyl-4,8-dimethyl-2-(((1-((1-methyl-3-(trifluoromethyl)-1H-pyrazol-5-yl)methyl)-1H-pyrazol-4-yl)methyl)amino)-7,8-dihydropteridin-6(5H)-one] | < 300 | 600 to 2000 | ≥ 3000 | – | – | –
Cc1cc(F)ncc1Cn1cc(CNc2nc(C)c3c(n2)N(C)[C@@H](C)C(=O)N3)cn1 [Compound 94, (7S)-2-(((1-((6-fluoro-4-methylpyridin-3-yl)methyl)-1H-pyrazol-4-yl)methyl)amino)-4,7,8-trimethyl-7,8-dihydropteridin-6(5H)-one] | < 300 | 600 to 2000 | ≥ 3000 | – | – | –
Cc1nc(N[C@H]2C[C@H](Sc3cc(F)c(F)c(F)c3)C2)nc2c1NC(=O)[C@H](C)N2C [Compound 329, (7S)-4,7,8-trimethyl-2-((trans-3-((3,4,5-trifluorophenyl)thio)-cyclobutyl)amino)-7,8-dihydropteridin-6(5H)-one] | < 300 | 600 to 2000 | ≥ 3000 | – | – | –
Cc1nc(NCc2cnn(Cc3ccc(C(F)(F)F)nc3Cl)c2)nc2c1NC(=O)[C@H](C)N2C [Compound 418, (7S)-2-(((1-((2-chloro-6-(trifluoromethyl)pyridin-3-yl)methyl)-1H-pyrazol-4-yl)methyl)amino)-4,7,8-trimethyl-7,8-dihydropteridin-6(5H)-one] | < 300 | < 600 | ≥ 3000 | – | – | –
Cc1nc(N[C@H]2C[C@@H](Sc3cc(F)c(F)c(F)c3)C2)nc2c1NC(=O)[C@H](C)N2C [Compound 332, (7S)-4,7,8-trimethyl-2-((cis-3-((3,4,5-trifluorophenyl)thio)cyclobutyl)amino)-7,8-dihydropteridin-6(5H)-one] | < 300 | 600 to 2000 | ≥ 3000 | – | – | –
Cc1nc(NCc2cnn(Cc3cnc(Cl)c(F)c3)c2)nc2c1NC(=O)[C@H](C(C)C)N2C [Compound 424, (7S)-2-(((1-((6-chloro-5-fluoropyridin-3-yl)methyl)-1H-pyrazol-4-yl)methyl)amino)-7-isopropyl-4,8-dimethyl-7,8-dihydropteridin-6(5H)-one] | < 300 | 600 to 2000 | ≥ 3000 | – | – | –
Cc1nc(NCc2cnn(Cc3ccc(C(F)(F)F)nc3)c2)nc2c1NC(=O)[C@H](C1CC1)N2C [Compound 386, (7S)-7-Cyclopropyl-4,8-dimethyl-2-(((1-((6-(trifluoromethyl)pyridin-3-yl)methyl)-1H-pyrazol-4-yl)methyl)amino)-7,8-dihydropteridin-6(5H)-one] | < 300 | 600 to 2000 | ≥ 3000 | – | – | –
Cc1nc(NCc2cnn(C3CCN(C(=O)c4ccc(F)cc4)CC3)c2)nc2c1NC(=O)[C@H](C)N2C [Compound 125, (7S)-2-(((1-(1-(4-Fluorobenzoyl)piperidin-4-yl)-1H-pyrazol-4-yl)methyl)amino)-4,7,8-trimethyl-7,8-dihydropteridin-6(5H)-one] | 1000 to 5000 | 2000 to 10000 | ≥ 3000 | – | – | –
Cc1nc(NCc2cnn(CC(C)(O)c3ccc(F)cc3)c2)nc2c1NC(=O)[C@H](C)N2C (stereo partly drawn) [Compound 128, (7S)-2-(((1-(2-(4-fluorophenyl)-2-hydroxypropyl)-1H-pyrazol-4-yl)methyl)amino)-4,7,8-trimethyl-7,8-dihydropteridin-6(5H)-one] | 1000 to 5000 | 2000 to 10000 | ≥ 3000 | – | – | –
Cc1cnc(C(F)(F)F)nc1-n1cc(CNc2ncc3c(n2)N(C)[C@@H](C)C(=O)N3)cn1 [Compound 164, (7S)-7,8-dimethyl-2-(((1-(5-methyl-2-(trifluoromethyl)pyrimidin-4-yl)-1H-pyrazol-4-yl)methyl)amino)-7,8-dihydropteridin-6(5H)-one] | 1000 to 5000 | 2000 to 10000 | ≥ 3000 | – | – | –
CC[C@H]1C(=O)Nc2cnc(NCc3cnn(Cc4ccc(C(F)(F)F)nc4)c3)nc2N1C [Compound 427, (7S)-7-ethyl-8-methyl-2-(((1-((6-(trifluoromethyl)pyridin-3-yl)methyl)-1H-pyrazol-4-yl)methyl)amino)-7,8-dihydropteridin-6(5H)-one] | 300 to 1000 | 600 to 2000 | ≥ 3000 | – | – | –
